Test results: PubChem BioAssay (NCI)
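1) Cells in 96-well plates. 2) Compound, 48 h, 5 concentrations. 3) Linear interpolation between surrounding doses. 4) Unreached endpoint = highest concentration. At the TGI there is no net growth.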

Key:
Assay in all cases: NCI-60 cell line screen, 48 h
NCI-H460 lung = system: NCI-H460 lung
SNB-75 CNS = system: SNB-75 CNS
MOLT-4 leukemia = system: MOLT-4 leukemia
HCT-15 colon = system: HCT-15 colon
KM12 colon = system: KM12 colon
A549 NSCLC = system: A549 NSCLC
K-562 leukemia = system: K-562 leukemia
U251 CNS = system: U251 CNS
SK-MEL-28 melanoma = system: SK-MEL-28 melanoma
MCF7 breast = system: MCF7 breast
SNB-19 CNS = system: SNB-19 CNS
SK-OV-3 ovarian = system: SK-OV-3 ovarian
DU-145 prostate = system: DU-145 prostate
HT29 colon = system: HT29 colon
HL-60(TB) leukemia = system: HL-60(TB) leukemia
SK-MEL-2 melanoma = system: SK-MEL-2 melanoma
MDA-MB-231 breast = system: MDA-MB-231 breast
OVCAR-8 ovarian = system: OVCAR-8 ovarian
HCT-116 colon = system: HCT-116 colon

Row | SMILES | TGI (NCI-H460 lung) [µM] | TGI (SNB-75 CNS) [µM] | TGI (MOLT-4 leukemia) [µM] | TGI (HCT-15 colon) [µM] | TGI (KM12 colon) [µM] | TGI (A549 NSCLC) [µM] | TGI (K-562 leukemia) [µM] | TGI (U251 CNS) [µM] | TGI (SK-MEL-28 melanoma) [µM] | TGI (MCF7 breast) [µM] | TGI (SNB-19 CNS) [µM] | TGI (SK-OV-3 ovarian) [µM] | TGI (DU-145 prostate) [µM] | TGI (HT29 colon) [µM] | TGI (HL-60(TB) leukemia) [µM] | TGI (SK-MEL-2 melanoma) [µM] | TGI (MDA-MB-231 breast) [µM] | TGI (OVCAR-8 ovarian) [µM] | TGI (HCT-116 colon) [µM]
1 | O=C(OC1OC2COC(=O)c3cc(O)c(O)c(O)c3-c3c(cc(O)c(O)c3O)C(=O)OC3C2OC(=O)[C@@]24CC(=O)[C@@](O)(OC25C(=O)O[C@H]2[C@@H](O)CO[C@@]25O)C2(O)Oc5c(O)c(O)cc(c5C24)C(=O)OC13)c1cc(O)c(O)c(O)c1 (stereo not given in full) | > 100 | > 100 | > 100 | > 100 | 68.6 | > 100 | > 100 | > 100 | > 100 | 29.1 | > 100 | > 100 | > 100 | > 100 | 92.3 | > 100 | 18.5 | > 100 | > 100
2 | O=c1oc2ccccc2c(-c2ccc(O)cc2)c1Oc1ccccc1 | 20.5 | > 79.3 | > 100 | > 70 | > 68.5 | > 66.9 | > 100 | 24.9 | > 66.1 | > 100 | 50.6 | > 100 | > 63.9 | > 100 | > 100 | 18.5 | > 100 | > 31.6 | > 87.9
3 | Cc1nc2ccc(S(=O)(=O)O)cc2c(=O)n1-c1ccc(C(=O)NN2C(=O)C(Cl)C2c2cccs2)cc1 (stereo not given) | > 100 | > 100 | > 100 | > 100 | > 100 | > 100 | > 100 | > 100 | > 100 | > 100 | > 100 | > 100 | > 100 | > 100 | 51.8 | 54.1 | 45.1 | > 100 | > 100
4 | CC1OC(OC2C(OC(=O)[C@]34CCC(C)(C)C[C@H]3C3=CC[C@@H]5[C@@]6(C)CC[C@H](OC7OC(CO)C(O)C(O)C7OC7OC(CO)C(O)C(O)C7O)C(C)(C)[C@@H]6CC[C@@]5(C)[C@]3(C)CC4)OCC(O)C2O)C(O)C(O)C1OC1OCC(O)C(O)C1O (stereo not given in full) | > 67.4 | 31 | 46.3 | 32.1 | 21.8 | 19.2 | 27.6 | 29.2 | 6.04 | 29.3 | 28.9 | 31.9 | 24.8 | 19.8 | 15.1 | 17.2 | 22.2 | 38.9 | 44.8
5 | COC(=O)C(=O)C(C(=O)C(=O)Nc1cccc(OC)c1)c1nc2ccc(Cl)cc2[nH]c1=O (stereo not given) | > 100 | > 100 | > 100 | > 100 | > 100 | > 100 | > 100 | > 100 | > 100 | > 100 | > 100 | > 100 | > 100 | > 100 | > 100 | > 100 | > 100 | > 100 | > 100
6 | NCCc1ccc(S(=O)(=O)O)cc1[N+](=O)[O-] | > 100 | > 100 | > 32.4 | > 100 | > 100 | > 100 | > 100 | > 100 | > 100 | > 100 | > 100 | > 100 | > 100 | > 100 | > 100 | > 100 | > 100 | > 100 | > 100
7 | COc1ccc(NC(=S)c2ccc([N+](=O)[O-])o2)cc1 | 5.72 | 14.9 | 13.9 | 3.56 | 3.55 | 11.1 | 7.55 | 2.55 | 12.5 | 4.42 | 11.7 | 25.7 | 10.2 | 3.7 | 5.89 | 4.15 | 6.35 | 13.1 | 3.12
8 | C=CCN(c1cc(O)c2c(c(C)cn2S(=O)(=O)c2ccccc2)c1[N+](=O)[O-])S(C)(=O)=O | > 100 | > 100 | > 100 | > 100 | > 100 | > 100 | > 100 | > 100 | > 100 | > 100 | > 100 | > 100 | > 100 | > 100 | > 100 | > 100 | > 100 | > 100 | > 100
9 | N#CCc1nc(-c2cc3ccccc3oc2=O)cs1 | > 100 | 99.7 | 63.1 | > 100 | > 100 | > 100 | > 100 | > 100 | > 100 | > 100 | > 100 | > 100 | > 100 | > 100 | > 100 | 80.2 | > 100 | > 100 | > 100
10 | C[C@H]1CCC/C=C/[C@@H]2C[C@H](OC(=O)CN(C)C)C[C@H]2[C@H](O)/C=C/C(=O)O1 | 4.05 | 99.7 | 2.79 | 5.54 | 0.235 | > 100 | > 100 | > 100 | > 30.9 | 4.31 | > 100 | > 100 | > 33.8 | 1.07 | 6.2 | 1.36 | 0.0327 | 5.54 | 0.746
11 | Cc1nc2ccc(N=Nc3c(C)noc3C)cc2[nH]1 | > 100 | 32.9 | 58.5 | > 100 | > 100 | > 100 | > 100 | > 100 | > 100 | 84 | > 100 | 56.7 | > 100 | 71.1 | 61.6 | > 100 | 96.6 | 89.6 | 91.4
12 | O=C1C(Cl)=CC2(C=C1Cl)CCN=c1c(O)c3c(c(O)c12)=NC=N3 | > 100 | > 100 | > 100 | > 100 | > 100 | > 100 | > 100 | 71.9 | > 100 | 48.9 | > 100 | > 100 | > 100 | 71.8 | 53.6 | 63.1 | > 100 | > 100 | 67.5
13 | CC(C)=CCC[C@@H](C)C1=C(N)C(O)=C(C)C(=O)C1=O | > 75 | > 75 | > 67.5 | > 75 | > 75 | > 75 | > 75 | > 75 | > 75 | > 75 | > 75 | > 75 | > 75 | > 48 | 39.5 | > 75 | > 75 | > 61.2 | > 75
14 | N/C(=N\N=C\c1nc2ccccc2o1)c1cnccn1 | > 100 | 42.8 | > 100 | > 100 | > 100 | > 100 | > 100 | > 100 | > 100 | > 100 | > 100 | > 100 | > 100 | > 100 | > 100 | > 100 | > 100 | > 100 | > 100
15 | Cc1ccc2c(=O)cc(-c3cc(C)sc3C)[nH]c2n1 | > 100 | > 29.9 | > 77.6 | > 100 | > 100 | > 39.3 | > 100 | > 100 | > 100 | > 100 | > 100 | > 82.7 | > 94.5 | 32.9 | 6.74 | > 29.6 | 65.8 | > 37.3 | > 69
